This is an account of results in patent USRE37781E1, “Substituted cyclic carbonyls and derivatives thereof useful as retroviral protease inhibitors” (DuPont Pharmaceuticals Company, priority 1991, dated 2002).

A value given as a limit tells only on which side of the number the result lay.

The first series has as its target single-chain tethered dimer of HIV protease (Human immunodeficiency virus 1, UniProt P04585). Description: biochemical. The class given is biochemical. Set-up: fused on or other part: A second copy of the same protease unit is joined to the first by a short peptide tether, giving one polypeptide. To be noted: read-out: HPLC K1; Table 2d; HIV protease inhibition, HPLC method.
For the compound `NC(=NO)c1cccc(CN2C(=O)N(CC3CC3)C(Cc3ccccc3)C(O)C(O)C2Cc2ccccc2)c1` (centres unmarked) [15AF], the Ki was below 10 nM.

`O=C1N(Cc2ccc(O)c(O)c2)C(Cc2ccccc2)C(O)C(O)C(Cc2ccccc2)N1CC1CC1` (centres unmarked) [15AG]: the Ki is below 10 nM.

Regarding `NC(=NO)c1cccc(CN2C(=O)N(Cc3ccc(CO)cc3)C(Cc3ccccc3)C(O)C(O)C2Cc2ccccc2)c1` (centres unmarked) [15AH], the Ki was below 10 nM.

For the compound `NC(=NO)c1ccc(CN2C(=O)N(Cc3ccc(CO)cc3)C(Cc3ccccc3)C(O)C(O)C2Cc2ccccc2)cc1` (centres unmarked) [15AI], the Ki is 10 to 1000 nM.

With `NC(=NO)c1cccc(CN2C(=O)N(Cc3ccc4ccccc4c3)C(Cc3ccccc3)C(O)C(O)C2Cc2ccccc2)c1` (centres unmarked) [15AN], the Ki was below 10 nM.

On to `NC(=NO)c1cccc(CN2C(=O)NC(Cc3ccccc3)C(O)C(O)C2Cc2ccccc2)c1` (centres unmarked) [15AT], for which the Ki was below 10 nM.

In the case of `NC(=NO)c1cccc(CN2C(=O)N(Cc3ccc(O)cc3)C(Cc3ccccc3)C(O)C(O)C2Cc2ccccc2)c1` (centres unmarked) [15AU], the Ki is below 10 nM.

With `Nc1ccc(CN2C(=O)N(Cc3ccc(N)cc3)C(Cc3ccccc3)C(O)C(O)C2Cc2ccccc2)cc1` (centres unmarked) [15CQ], the Ki is below 10 nM.

`O=C1N(Cc2ccc3[nH]ncc3c2)C(Cc2ccccc2)C(O)C(O)C(Cc2ccccc2)N1Cc1ccc2[nH]ncc2c1` (centres unmarked) [15CX]: the Ki was below 10 nM.

With `O=C1N(Cc2ccc3cn[nH]c3c2)C(Cc2ccccc2)C(O)C(O)C(Cc2ccccc2)N1Cc1ccc2cn[nH]c2c1` (centres unmarked) [15CY], the Ki is below 10 nM.

For the compound `O=C1Nc2ccc(CN3C(=O)N(Cc4ccc5c(c4)C(=O)C(=O)N5)C(Cc4ccccc4)C(O)C(O)C3Cc3ccccc3)cc2C1=O` (centres unmarked) [15DA], the Ki was below 10 nM.

As for `O=C1N(Cc2ccc3[nH]ccc3c2)C(Cc2ccccc2)C(O)C(O)C(Cc2ccccc2)N1Cc1ccc2[nH]ccc2c1` (centres unmarked) [15DE], the Ki is below 10 nM.

With `Cc1ccc(CN2C(=O)N(Cc3ccc(CO)cc3)C(Cc3ccccc3)C(O)C(O)C2Cc2ccccc2)cc1` (centres unmarked) [15EI], the Ki is below 10 nM.

The series is the same for the next values; noted with them: read-out: HPLC K1; Table 2d; class symbols.
Turning to `O=C1N(Cc2cccc(-c3nnn[nH]3)c2)C(Cc2ccccc2)C(O)C(O)C(Cc2ccccc2)N1Cc1cccc(-c2nnn[nH]2)c1` (centres unmarked) [9T], the Ki was below 10 nM.

For `O=C1N(Cc2cccc(-c3nnn[nH]3)c2)C(Cc2ccccc2)C(O)C(O)C(Cc2ccccc2)N1CC1CC1` (centres unmarked) [9U], the Ki was below 10 nM.

Take `N#Cc1cccc(CN2C(=O)N(Cc3cccc(C=O)c3)C(Cc3ccccc3)C(O)C(O)C2Cc2ccccc2)c1` (centres unmarked) [10C]: the Ki is below 10 nM.

As to `CON=Cc1cccc(CN2C(=O)N(Cc3cccc(C=NOC)c3)C(Cc3ccccc3)C(O)C(O)C2Cc2ccccc2)c1` (centres unmarked) [10D], the Ki was 10 to 1000 nM.

As to `O=C1N(Cc2cccc(O)c2)C(Cc2ccccc2)C(O)C(O)C(Cc2ccccc2)N1Cc1ccc2ccccc2c1` (centres unmarked) [10K], the Ki was below 10 nM.

As for `CONC(=O)c1cccc(CN2C(=O)N(Cc3cccc(C(=O)NOC)c3)C(Cc3ccccc3)C(O)C(O)C2Cc2ccccc2)c1` (centres unmarked) [10R], the Ki is below 10 nM.

The subject of another series is HIV-1 (RF) in MT-2 cells. As to the kind of experiment: microbe, parasite or virus in culture. Particulars: Human immunodeficiency virus 1, MT2, 48 h, Table 2d; HIV RNA assay; read-out: IC90. The class given is cell-based. The essentials:
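Read-out: gag and pol viral RNA captured by 5′-biotinylated oligonucleotides on streptavidin-coated wells, detected with alkaline phosphatase-linked reporter oligonucleotides, calibrated against BH10 in vitro transcripts. Virus stocks (RF, MN, IIIB) come from H9 cultures; MT-2 host cells kept in RPMI 1640, 5% FCS.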
For orientation: IC90 means the point of the concentration-response curve where the effect stands at 90%. On to `NC(=NO)c1cccc(CN2C(=O)N(CC3CC3)C(Cc3ccccc3)C(O)C(O)C2Cc2ccccc2)c1` (centres unmarked) [15AF], for which the 90% effect concentration (IC90) is below 10 µg/mL.

In the case of `O=C1N(Cc2ccc(O)c(O)c2)C(Cc2ccccc2)C(O)C(O)C(Cc2ccccc2)N1CC1CC1` (centres unmarked) [15AG], the IC90 is below 10 µg/mL.

As to `NC(=NO)c1cccc(CN2C(=O)N(Cc3ccc(CO)cc3)C(Cc3ccccc3)C(O)C(O)C2Cc2ccccc2)c1` (centres unmarked) [15AH], the IC90 was below 10 µg/mL.

With `NC(=NO)c1ccc(CN2C(=O)N(Cc3ccc(CO)cc3)C(Cc3ccccc3)C(O)C(O)C2Cc2ccccc2)cc1` (centres unmarked) [15AI], the IC90 is below 10 µg/mL.

Regarding `NC(=NO)c1cccc(CN2C(=O)N(Cc3ccc4ccccc4c3)C(Cc3ccccc3)C(O)C(O)C2Cc2ccccc2)c1` (centres unmarked) [15AN], the IC90 was below 10 µg/mL.

In the case of `NC(=NO)c1cccc(CN2C(=O)NC(Cc3ccccc3)C(O)C(O)C2Cc2ccccc2)c1` (centres unmarked) [15AT], the IC90 is below 10 µg/mL.

Turning to `NC(=NO)c1cccc(CN2C(=O)N(Cc3ccc(O)cc3)C(Cc3ccccc3)C(O)C(O)C2Cc2ccccc2)c1` (centres unmarked) [15AU], the IC90 was below 10 µg/mL.

Turning to `Nc1ccc(CN2C(=O)N(Cc3ccc(N)cc3)C(Cc3ccccc3)C(O)C(O)C2Cc2ccccc2)cc1` (centres unmarked) [15CQ], the IC90 was below 10 µg/mL.

Consider `O=C1N(Cc2ccc3[nH]ncc3c2)C(Cc2ccccc2)C(O)C(O)C(Cc2ccccc2)N1Cc1ccc2[nH]ncc2c1` (centres unmarked) [15CX], for which the IC90 is below 10 µg/mL.

Take `O=C1N(Cc2ccc3cn[nH]c3c2)C(Cc2ccccc2)C(O)C(O)C(Cc2ccccc2)N1Cc1ccc2cn[nH]c2c1` (centres unmarked) [15CY]: the IC90 was below 10 µg/mL.

`O=C1Nc2ccc(CN3C(=O)N(Cc4ccc5c(c4)C(=O)C(=O)N5)C(Cc4ccccc4)C(O)C(O)C3Cc3ccccc3)cc2C1=O` (centres unmarked) [15DA]: the IC90 is below 10 µg/mL.

For the compound `O=C1N(Cc2ccc3[nH]ccc3c2)C(Cc2ccccc2)C(O)C(O)C(Cc2ccccc2)N1Cc1ccc2[nH]ccc2c1` (centres unmarked) [15DE], the IC90 was below 10 µg/mL.

The same series, now with this note: Human immunodeficiency virus 1, MT2, 48 h, Table 2d; class symbols; read-out: IC90.
As to `O=C1N(Cc2cccc(-c3nnn[nH]3)c2)C(Cc2ccccc2)C(O)C(O)C(Cc2ccccc2)N1Cc1cccc(-c2nnn[nH]2)c1` (centres unmarked) [9T], the IC90 was above 100 µg/mL.

As to `O=C1N(Cc2cccc(-c3nnn[nH]3)c2)C(Cc2ccccc2)C(O)C(O)C(Cc2ccccc2)N1CC1CC1` (centres unmarked) [9U], the IC90 is below 10 µg/mL.

For `N#Cc1cccc(CN2C(=O)N(Cc3cccc(C=O)c3)C(Cc3ccccc3)C(O)C(O)C2Cc2ccccc2)c1` (centres unmarked) [10C], the IC90 is below 10 µg/mL.

As for `CON=Cc1cccc(CN2C(=O)N(Cc3cccc(C=NOC)c3)C(Cc3ccccc3)C(O)C(O)C2Cc2ccccc2)c1` (centres unmarked) [10D], the IC90 is above 100 µg/mL.

On to `O=C1N(Cc2cccc(O)c2)C(Cc2ccccc2)C(O)C(O)C(Cc2ccccc2)N1Cc1ccc2ccccc2c1` (centres unmarked) [10K], for which the IC90 was below 10 µg/mL.

Consider `CONC(=O)c1cccc(CN2C(=O)N(Cc3cccc(C(=O)NOC)c3)C(Cc3ccccc3)C(O)C(O)C2Cc2ccccc2)c1` (centres unmarked) [10R], for which the IC90 was below 10 µg/mL.

Test system in another series: not given
Experiment: not given
Settings: not given
By melting point is commonly meant the temperature, or range, at which the solid turns liquid. `O=C1N(Cc2cccc(-c3nnn[nH]3)c2)C(Cc2ccccc2)C(O)C(O)C(Cc2ccccc2)N1Cc1cccc(-c2nnn[nH]2)c1` (centres unmarked) [9T] displayed a melting point of 159.4 °C.

`O=C1N(Cc2cccc(-c3nnn[nH]3)c2)C(Cc2ccccc2)C(O)C(O)C(Cc2ccccc2)N1CC1CC1` (centres unmarked) [9U]: the melting point was 171.6 °C.

With `N#Cc1cccc(CN2C(=O)N(Cc3cccc(C=O)c3)C(Cc3ccccc3)C(O)C(O)C2Cc2ccccc2)c1` (centres unmarked) [10C], the melting point lay within 189 to 191 °C.

`CON=Cc1cccc(CN2C(=O)N(Cc3cccc(C=NOC)c3)C(Cc3ccccc3)C(O)C(O)C2Cc2ccccc2)c1` (centres unmarked) [10D] displayed a melting point of 183 to 185 °C.

Turning to `O=C1N(Cc2cccc(O)c2)C(Cc2ccccc2)C(O)C(O)C(Cc2ccccc2)N1Cc1ccc2ccccc2c1` (centres unmarked) [10K], the melting point fell in the range of 137 to 138 °C.

In the case of `CONC(=O)c1cccc(CN2C(=O)N(Cc3cccc(C(=O)NOC)c3)C(Cc3ccccc3)C(O)C(O)C2Cc2ccccc2)c1` (centres unmarked) [10R], the melting point is 150 to 158 °C.

Turning to `NC(=NO)c1cccc(CN2C(=O)N(CC3CC3)C(Cc3ccccc3)C(O)C(O)C2Cc2ccccc2)c1` (centres unmarked) [15AF], the melting point is 183 to 186 °C.

`O=C1N(Cc2ccc(O)c(O)c2)C(Cc2ccccc2)C(O)C(O)C(Cc2ccccc2)N1CC1CC1` (centres unmarked) [15AG]: the melting point came to 141 °C.

`NC(=NO)c1cccc(CN2C(=O)N(Cc3ccc(CO)cc3)C(Cc3ccccc3)C(O)C(O)C2Cc2ccccc2)c1` (centres unmarked) [15AH] yielded a melting point of 198 to 199 °C.

In turn, `NC(=NO)c1ccc(CN2C(=O)N(Cc3ccc(CO)cc3)C(Cc3ccccc3)C(O)C(O)C2Cc2ccccc2)cc1` (centres unmarked) [15AI] yielded a melting point of 215 °C.

In turn, `NC(=NO)c1cccc(CN2C(=O)N(Cc3ccc4ccccc4c3)C(Cc3ccccc3)C(O)C(O)C2Cc2ccccc2)c1` (centres unmarked) [15AN] had a melting point of 192 to 193 °C.

`NC(=NO)c1cccc(CN2C(=O)NC(Cc3ccccc3)C(O)C(O)C2Cc2ccccc2)c1` (centres unmarked) [15AT] had a melting point of 172 to 179 °C.

For `NC(=NO)c1cccc(CN2C(=O)N(Cc3ccc(O)cc3)C(Cc3ccccc3)C(O)C(O)C2Cc2ccccc2)c1` (centres unmarked) [15AU], the melting point fell in the range of 195 to 197 °C.

Compound `Nc1ccc(CN2C(=O)N(Cc3ccc(N)cc3)C(Cc3ccccc3)C(O)C(O)C2Cc2ccccc2)cc1` (centres unmarked) [15CQ] registered a melting point of 114 to 116 °C.

Regarding `O=C1N(Cc2ccc3[nH]ncc3c2)C(Cc2ccccc2)C(O)C(O)C(Cc2ccccc2)N1Cc1ccc2[nH]ncc2c1` (centres unmarked) [15CX], the melting point lay in the range of 165 to 170 °C.

`O=C1N(Cc2ccc3cn[nH]c3c2)C(Cc2ccccc2)C(O)C(O)C(Cc2ccccc2)N1Cc1ccc2cn[nH]c2c1` (centres unmarked) [15CY] returned a melting point of 170 to 175 °C.

Regarding `O=C1Nc2ccc(CN3C(=O)N(Cc4ccc5c(c4)C(=O)C(=O)N5)C(Cc4ccccc4)C(O)C(O)C3Cc3ccccc3)cc2C1=O` (centres unmarked) [15DA], the melting point lay within 196 to 200 °C.

In the case of `O=C1N(Cc2ccc3[nH]ccc3c2)C(Cc2ccccc2)C(O)C(O)C(Cc2ccccc2)N1Cc1ccc2[nH]ccc2c1` (centres unmarked) [15DE], the melting point was 170 °C (dec.).

For the compound `Cc1ccc(CN2C(=O)N(Cc3ccc(CO)cc3)C(Cc3ccccc3)C(O)C(O)C2Cc2ccccc2)cc1` (centres unmarked) [15EI], the melting point is 174 to 175 °C.
